Experiments:
bromodomain = experiment: Bromodomain cell assays of Example 40 (at least one of them); format: cell-based; details: in at least one of the bromodomain cell assays described in Example 40
Summary of the method: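 Growth inhibition: 3000 MV-4-11, MOLM-13, MM.1S or neuroblastoma cells/well got an 8-point 1:3 series from 10 μM top (0.2% DMSO) for 72 h, then CellTiter-Glo luminescence. Myc reporter: MV-4-11 with E-box firefly luciferase, 24 h exposure, One-Glo luminescence plus CellTiter-Fluo cell count. pIC50 from four-parameter fit.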

MV-4-11 = experiment: Oncology cell growth assay MV-4-11 (CellTiter Glo, 72 hours); format: cell-based; details: Homo sapiens, MV4-11, 72 h; MV-4-11 cell growth inhibitory activity, 3d
Summary of the method: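 MV-4-11 cells (MLL-AF4 AML) exposed 72 h to 8-point 1:3 titration, top final 10 μM, 0.2% DMSO. CellTiter Glo luminescence as cell-number readout, normalized to DMSO controls; pIC50 from four-parameter fit.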

Row | Structure (SMILES) | IC50 (bromodomain) | IC50 (MV-4-11)
1 | Cc1noc(C)c1-c1cnc2[nH]cc(C(c3ccc(F)cc3)C3CC3)c2c1 (centres unmarked) [P-0064, 4-[3-[cyclopropyl-(4-fluorophenyl)methyl]-1H-pyrrolo[2,3-b]pyridin-5-yl]-3,5-dimethyl-isoxazole] | < 10 µM | ≤ 1 µM
2 | Cc1noc(C)c1-c1cnc2ccn(S(=O)(=O)C3CCCCC3)c2c1 [P-0066, 4-(1-cyclohexylsulfonylpyrrolo [3,2-b]pyridin-6-yl)-3,5-dimethyl-isoxazole] | < 10 µM | ≤ 1 µM
3 | COC(c1cn(S(=O)(=O)C2CCCCC2)c2cc(-c3c(C)noc3C)cnc12)C1CC1 (centres unmarked) [P-0071, 4-[1-cyclohexylsulfonyl-3-[cyclopropyl(methoxy)methyl]pyrrolo[3,2-b]pyridin-6-yl]-3,5-dimethyl-isoxazole] | < 10 µM | 1 to 10 µM
4 | COC(c1c[nH]c2ncc(-c3c(C)noc3C)cc12)C1CCC(F)(F)CC1 (centres unmarked) [P-0073, 4-[3-[(4,4-difluorocyclohexyl)-methoxy-methyl]-1H-pyrrolo[2,3-b]pyridin-5-yl]-3,5-dimethyl-isoxazole] | < 10 µM | ≤ 1 µM
5 | Cc1noc(C)c1-c1cnc2c(CC3CC3)cn(S(=O)(=O)C3CCCCC3)c2c1 [P-0075, 4-[1-cyclohexylsulfonyl-3-(cyclopropylmethyl)pyrrolo [3,2-b]pyridin-6-yl]-3,5-dimethyl-isoxazole] | < 10 µM | 1 to 10 µM
6 | Cc1noc(C)c1-c1cnc2c(I)cn(S(=O)(=O)c3ccccc3)c2c1 [P-0076, 4-[1-(benzenesulfonyl)-3-iodo-pyrrolo[3,2-b]pyridin-6-yl]-3,5-dimethyl-isoxazole] | < 10 µM | ≤ 1 µM
7 | Cc1noc(C)c1-c1cnc2c(-c3ccccc3)cn(S(=O)(=O)c3ccccc3)c2c1 [P-0077, 4-[1-(benzenesulfonyl)-3-phenyl-pyrrolo[3,2-b]pyridin-6-yl]-3,5-dimethyl-isoxazole] | < 10 µM | 1 to 10 µM
8 | CCS(=O)(=O)n1cc(C(OC)C2CCC(F)(F)CC2)c2cc(-c3c(C)noc3C)cnc21 (centres unmarked) [P-0078, 4-[3-[(4,4-difluorocyclohexyl)-methoxy-methyl]-1-ethylsulfonyl-pyrrolo[2,3-b]pyridin-5-yl]-3,5-dimethyl-isoxazole] | < 10 µM | 1 to 10 µM
9 | Cc1noc(C)c1-c1cnc2c(-c3cccnc3)cn(S(=O)(=O)c3ccccc3)c2c1 [P-0084, 4-[1-(benzenesulfonyl)-3-(3-pyridyl)pyrrolo[3,2-b]pyridin-6-yl]-3,5-dimethyl-isoxazole] | < 10 µM | ≤ 1 µM
10 | Cc1noc(C)c1-c1cnc2[nH]cc(C(c3ccc(F)cc3)(C3CC3)C3CC3)c2c1 [P-0085, 4-[3-[dicyclopropyl-(4-fluorophenyl)methyl]-1H-pyrrolo[2,3-b]pyridin-5-yl]-3,5-dimethyl-isoxazole] | < 10 µM | 1 to 10 µM
11 | COC(c1c[nH]c2ncc(-c3c(C)noc3C)cc12)C1CCS(=O)(=O)CC1 (centres unmarked) [P-0089, 4-[[5-(3,5-dimethylisoxazol-4-yl)-1H-pyrrolo[2,3-b]pyridin-3-yl]-methoxy-methyl]thiane 1,1-dioxide] | < 10 µM | 1 to 10 µM
12 | Cc1noc(C)c1-c1cnc2c(c1)c(C(O)C1CCSCC1)cn2S(=O)(=O)c1ccccc1 (centres unmarked) [P-0090, [1-(benzenesulfonyl)-5-(3,5-dimethylisoxazol-4-yl)pyrrolo[2,3-b]pyridin-3-yl]-tetrahydrothiopyran-4-yl-methanol] | < 10 µM | 1 to 10 µM
13 | Cc1noc(C)c1-c1cnc2[nH]cc(CC3CCS(=O)(=O)CC3)c2c1 [P-0098, 4-[[5-(3,5-dimethylisoxazol-4-yl)-1H-pyrrolo[2,3-b]pyridin-3-yl]methyl]thiane 1,1-dioxide] | < 10 µM | 1 to 10 µM
14 | Cc1noc(C)c1-c1cnc2c(-c3cnc(C4CC4)nc3)cn(S(=O)(=O)C3CCCC3)c2c1 [P-0103, 4-[1-cyclopentylsulfonyl-3-(2-cyclopropylpyrimidin-5-yl)pyrrolo[3,2-b]pyridin-6-yl]-3,5-dimethyl-isoxazole] | < 10 µM | 1 to 10 µM
15 | COc1ncc(-c2cn(S(=O)(=O)c3ccccc3)c3cc(-c4c(C)noc4C)cnc23)cn1 [P-0104, 4-[1-(benzenesulfonyl)-3-(2-methoxypyrimidin-5-yl)pyrrolo[3,2-b]pyridin-6-yl]-3,5-dimethyl-isoxazole] | < 10 µM | 1 to 10 µM
16 | COc1ncc(-c2cn(S(=O)(=O)C3CCCC3)c3cc(-c4c(C)noc4C)cnc23)cn1 [P-0105, 4-[1-cyclopentylsulfonyl-3-(2-methoxypyrimidin-5-yl)pyrrolo[3,2-b]pyridin-6-yl]-3,5-dimethyl-isoxazole] | < 10 µM | 1 to 10 µM
17 | Cc1noc(C)c1-c1cnc2c(c1)c(CC1CCN(C(=O)C(F)(F)F)CC1)cn2C [P-0106, 1-[4-[[5-(3,5-dimethylisoxazol-4-yl)-1-methyl-pyrrolo[2,3-b]pyridin-3-yl]methyl]-1-piperidyl]-2,2,2-trifluoro-ethanone] | < 10 µM | ≤ 1 µM
18 | Cc1noc(C)c1-c1cnc2c(-c3cnn(C)c3)cn(S(=O)(=O)c3ccccc3)c2c1 [P-0110, 4-[1-(benzenesulfonyl)-3-(1-methylpyrazol-4-yl)pyrrolo[3,2-b]pyridin-6-yl]-3,5-dimethyl-isoxazole] | < 10 µM | ≤ 1 µM
19 | CCCS(=O)(=O)n1cc(-c2cnn(C)c2)c2ncc(-c3c(C)noc3C)cc21 [P-0111, 3,5-dimethyl-4-[3-(1-methylpyrazol-4-yl)-1-propylsulfonyl-pyrrolo [3,2-b]pyridin-6-yl] isoxazole] | < 10 µM | ≤ 1 µM
20 | Cc1noc(C)c1-c1cnc2c(-c3cnn(C)c3)cn(S(=O)(=O)C3CCCC3)c2c1 [P-0112, 4-[1-cyclopentylsulfonyl-3-(1-methylpyrazol-4-yl)pyrrolo[3,2-b]pyridin-6-yl]-3,5-dimethyl-isoxazole] | < 10 µM | ≤ 1 µM
21 | Cc1noc(C)c1-c1cnc2c(c1)c(CC1CCN(S(=O)(=O)c3ccccc3)CC1)cn2C [P-0113, 4-[3-[[1-(benzenesulfonyl)-4-piperidyl]methyl]-1-methyl-pyrrolo[2,3-b]pyridin-5-yl]-3,5-dimethyl-isoxazole] | < 10 µM | 1 to 10 µM
22 | Cc1noc(C)c1-c1cnc2c(c1)c(CC1CCN(C(=O)c3ccccc3)CC1)cn2C [P-0115, [4-[[5-(3,5-dimethylisoxazol-4-yl)-1-methyl-pyrrolo[2,3-b]pyridin-3-yl]methyl]-1-piperidyl]-phenyl-methanone] | < 10 µM | ≤ 1 µM
23 | CCNC(=O)N1CCC(Cc2cn(C)c3ncc(-c4c(C)noc4C)cc23)CC1 [P-0117, 4-[[5-(3,5-dimethylisoxazol-4-yl)-1-methyl-pyrrolo[2,3-b]pyridin-3-yl]methyl]-N-ethyl-piperidine-1-carboxamide] | < 10 µM | ≤ 1 µM
24 | CCC(c1cn(C)c2ncc(-c3c(C)noc3C)cc12)C1CCC(F)(F)CC1 (centres unmarked) [P-0118, 4-[3-[1-(4,4-difluorocyclohexyl)propyl]-1-methyl-pyrrolo[2,3-b]pyridin-5-yl]-3,5-dimethyl-isoxazole] | < 10 µM | ≤ 1 µM
25 | CC(=O)N1CCC(Cc2cn(C)c3ncc(-c4c(C)noc4C)cc23)CC1 [P-0120, 1-[4-[[5-(3,5-dimethylisoxazol-4-yl)-1-methyl-pyrrolo[2,3-b]pyridin-3-yl]methyl]-1-piperidyl]ethanone] | < 10 µM | 1 to 10 µM

Source: patent US10501460B2, “Heterocyclic compounds and uses thereof” (Plexxikon Inc., priority 2013, dated 2019)
